Read-outs that look alike come from different tables or passages of the source.

Assay [1] concerns the target muscarinic acetylcholine receptors. Kind of assay: inhibition of specific binding of ^3 H-Oxotremorine-M (^3 H-Oxo). The note with it: ^3 H-Oxotremorine 1.0 nM, rat cortex, 30 min. at 25° C. Also on record: species or system rat (male Wistar. The text has this: The pharmacological properties of the compounds of the invention can be illustrated by determining their capability to inhibit the specific binding of ^3 H-Oxotremorine-M (^3 H-Oxo). Birdsdall N. J. M., Hulme E. C., and Burgen A. S. V. (1980). "The Character of Muscarinic Receptors in Different Regions of the Rat Brain" Proc. Roy. Soc. London (Series B) 207,1.
^3 H-Oxo labels muscarinic receptor in the CNS (with a preference for agonist domains of the receptors). Three different sites are labeled by ^3 H-Oxo. […] Using the present experimental conditions only the high and medium affinity sites are determined.
The inhibitory effects of compounds on ^3 H-oxo binding reflects the affinity for muscarinic acetylcholine receptors.
All preparations are performed at 0°-4° C. unless otherwise indicated. Fresh cortex (0.1-1 g) from male Wistar rats (150-250 g) is homogenized for 5-10 seconds in 10 mL […] Hepes pH: 7.4, with an Ultra-Turrax homogenizer. The homogenizer is rinsed with 10 mL of buffer and the combined suspension centrifuged for 15 min. at 40,000×g. The pellet is washed three times with buffer. In each step the pellet is homogenized as before in 2×10 mL of buffer and centrifuged for 10 min. at 40,000×g.
The final pellet is homogenized in 20 mM Hepes pH: 7.4 (100 mL per g of original tissue) and used for binding assay. Aliquots of 0.5 mL is added 25 μL of test solution and 25 μL of ^3 H-Oxotremorine (1.0 nM, final concentration) mixed and incubated for 30 min. at 25° C. Non-specific binding is determined in triplicate using arecoline ([…], final concentration) as the test substance. After incubation samples are added 5 mL of ice-cold buffer and poured directly onto Whatman GF/C glass fiber filters under suction and immediately washed 2 times with 5 mL of ice-cold buffer. The amount of radioactivity on the filters are determined by conventional liquid scintillation counting. Specific binding is total binding minus non specific binding.
Test substances are dissolved in 10 mL water (if necessary heated on a steam-bath for less than 5 min.) at a concentration of 2.2 mg/mL. […] The test value will be given as IC50 (the concentration (nM) of the test substance which inhibits the specific binding of ^3 H-oxo by 50%). IC50 =(applied test substance concentration) x(Cx /Co -Cx)nM where Co is specific binding in control assays and Cx is the specific binding in the test assay. (The calculations assume normal mass-action kinetics).

Assay [2] deals with T1, muscarinic receptors (M1 -site, pirenzepine sensitive site) (Rattus norvegicus, UniProt P08482).
T1 construct: from tissue; host or cells: cerebral cortex membranes of male Wistar rats
T1 sequence (P08482 1-460): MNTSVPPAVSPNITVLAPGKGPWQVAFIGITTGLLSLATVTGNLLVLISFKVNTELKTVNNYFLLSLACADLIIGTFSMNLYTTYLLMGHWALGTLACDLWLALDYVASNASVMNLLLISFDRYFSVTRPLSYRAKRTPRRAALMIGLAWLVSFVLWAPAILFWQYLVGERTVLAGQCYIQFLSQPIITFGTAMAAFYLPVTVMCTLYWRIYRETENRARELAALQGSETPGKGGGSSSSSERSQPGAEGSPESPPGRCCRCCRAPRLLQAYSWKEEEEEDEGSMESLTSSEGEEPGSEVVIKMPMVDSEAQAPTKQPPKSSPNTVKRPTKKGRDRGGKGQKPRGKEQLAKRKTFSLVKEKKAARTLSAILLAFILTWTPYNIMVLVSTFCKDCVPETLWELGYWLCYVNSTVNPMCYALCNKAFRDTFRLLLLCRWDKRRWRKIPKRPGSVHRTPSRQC
Kind of assay: inhibition of ^3 HPRZ (pirenzepine, [N-methyl-^3 H]) binding to rat cerebral cortex membranes. Also on record: species or system rat (male Wistar. The procedure:
Furthermore the pharmacological properties of the compounds of the invention can also be illustrated by determining their capability to inhibit ^3 HPRZ (pirenzepine, [N-methyl-^3 H]) binding to rat cerebral cortex membranes.
Pirenzepine binds selectively to subtype of muscarinic receptors. Historically the type is named the M1 -site, whereas pirenzepine sensitive site would be more appropriate.
All preparations are performed at 0°-4° C. unless otherwise indicated. Fresh cortex ([…]) from male Wistar rats (150-200 g) is homogenized for 5-10 s in 10 mL 20 mM Hepes pH: 7.4, with an Ultra-Turrax homogenizer. The homogenizer is rinsed with 2×10 mL of buffer and the combined suspension centrifuged for 15 min. at 40,000×g. The pellet is washed three times with buffer. In each step the pellet is homogenized as before in 3×10 mL of buffer and centrifuged for 10 min. at 40,000×g.
The final pellet is homogenized in 20 mM Hepes pH: 7.4 (100 mL per g of original tissue) and used for binding assay. Aliquots of 0.5 mL is added 20 μl of test solution and 25 μL of ^3 HPRZ (1.0 nM, final conc.), mixed and incubated for 60 min. at 20° C. Non-specific binding is determined in triplicate using atropine (1 ,μg/mL, final conc.) as the test substance. After incubation samples are added 5 mL of ice-cold buffer and poured directly onto Whatman GF/C glass fiber filters under suction and immediately washed 2 times with 5 mL of ice-cold buffer. The amount of radioactivity on the filters are determined by conventional liquid scintillation counting. Specific binding is total binding minus non-specific binding.
Test substances are dissolved in 10 mL water, at a concentration of 0.22 mg/mL.
The test value will be given as IC50 (the concentration (nM) of the test substance which inhibits the specific binding of ^3 HPRZ by 50%). IC50 =(applied test substance concentration) x(Cx /Co -Cx)nM where Co is specific binding in control assays and Cx is the specific binding in the test assay. (The calculations assume normal mass-action kinetics).

[3] abbreviates: ^3 HPRZ 1.0 nM, rat cortex, 60 min. at 20° C., read-out: ^3 HPRZ IC50 (head from b208 on: Pir IC-50).

`Fc1ccc(CSc2nsnc2OC2CN3CCC2CC3)cc1` (racemic) [Compound 42, (±)-3-(4-Fluorobenzylthio)-4-(1-azabicyclo[2.2.2]octyl-3-oxy)-1,2,5-thiadiazole]: the results for the concentration for half-maximal inhibition (IC50) in assay [1] and in assay [2] were 14 nM and 9.3 nM, respectively.
The matching figures for `COCCOc1nsnc1OC1CN2CCC1CC2` (racemic) [Compound 111, (±)-3-(2-Methoxyethoxy)-4-(1-azabicyclo[2.2.2]octyl-3-oxy)-1,2,5-thiadiazole]: 38 nM and 85 nM.
Consider `CC(Oc1nsnc1OC1CN2CCCC1C2)C1CC1` (mixture of isomers) [Compound 199, (±)-endo-3-(1-cyclopropylethoxy)-4-(1-azabicyclo[3.2.1]octyl-6-oxy)-1,2,5-thiadiazole], for which the concentration for half-maximal inhibition (IC50) (commonly the midpoint of a concentration-inhibition curve) in assay [1] was found to be 3.3 nM; in assay [2] (setting [3]) it was 5.4 nM.
Taken in the same sequence, the figures for `C1CCC(CCCCOc2nsnc2O[C@@H]2CN3CCC[C@H]2C3)CC1` (relative stereo) [Compound 202, (±)-endo-3-(4-Cyclohexylbutoxy)-4-(1-azabicyclo[3.2.1]octyl-6-oxy)-1,2,5-thiadiazole] were 13 nM and 31 nM.
For `CCCCSc1nsnc1OCC1CN2CCC1CC2` (racemic) [Compound 22, (±)-3-Butylthio-4-((1-azabicyclo[2.2.2]octan-3-yl)-methoxy)-1,2,5-thiadiazole], the results for the half-maximal inhibitory concentration (IC50) in assay [1] and in assay [2] were 23 nM and 7.4 nM, respectively.
The matching figures for `c1ccc(CCCCSc2nsnc2OC2CN3CCC2CC3)cc1` (racemic) [Compound 148, (±)-3-(4-Phenylbutylthio)-4-(1-azabicyclo[2.2.2]octyl-3-oxy)-1,2,5-thiadiazole]: 8 nM and 25 nM.
`C(CC1CC1)Oc1nsnc1OC1CN2CCC1CC2` (racemic) [Compound 114, (±)-3-(2-Cyclopropylethoxy)-4-(1-azabicyclo[2.2.2]octyl-3-oxy)-1,2,5-thiadiazole]: the results for the 50% inhibitory concentration (IC50) in assay [1] and in assay [2] were 9.3 nM and 43 nM, respectively.
With `C/C=C/COc1nsnc1O[C@@H]1CN2CCC[C@H]1C2` (relative stereo) [Compound 169, (±)-endo-3-(trans-2-Butenyloxy)-4-(1-azabicyclo[3.2.1]octyl-6-oxy)-1,2,5-thiadiazole], the concentration for half-maximal inhibition (IC50) in assay [1] was determined as 1 nM; in assay [2] (setting [3]), 1.9 nM.
On to `CCCCOc1nsnc1OC1CN2CCC1CC2` (racemic) [Compound 8, (±)-3-Butyloxy-4-(1-azabicyclo[2.2.2]octyl-3-oxy)-1,2,5-thiadiazole], for which the IC50 worked out at 3.1 nM in assay [1] and 7.4 nM in assay [2].
Regarding `FC(F)(F)CCCOc1nsnc1OC1CC2CCC1NC2` (mixture of isomers) [Compound 160, (±)-exo-3-(4,4,4-Trifluorobutyloxy)-4-(2-azabicyclo[2.2.2]octyl-6-oxy)-1,2,5-thiadiazole], the IC50 amounted to 14 nM in assay [1] and 6.3 nM in assay [2] (setting [3]).
Take `FCCCCOc1nsnc1O[C@@H]1CN2CCC[C@H]1C2` (relative stereo) [Compound 197, (±)-endo-3-(4-Fluorobutoxy)-4-(1-azabicyclo[3.2.1]octyl-6-oxy)-1,2,5-thiadiazole]: the IC50 was 2.3 nM in assay [1] and 6.9 nM in assay [2] (setting [3]).
As to `CCCCCCOc1nsnc1OC1CC2CCC1NC2` (mixture of isomers) [Compound 161, (±)-exo-3-(Hexyloxy)-4-(2-azabicyclo[2.2.2]octyl-6-oxy)-1,2,5-thiadiazole], the IC50 in assay [1] amounted to 6.8 nM; in assay [2] (setting [3]) it was 5.3 nM.
`Cl/C=C/COc1nsnc1OC1CN2CCC1CC2` (mixture of isomers) [Compound 120, (±)-3-(trans-3-chloro-2-propenyloxy)-4-(1-azabicyclo[2.2.2]octyl-3-oxy)-1,2,5-thiadiazole]: the IC50 stood at 11 nM in assay [1] and 71 nM in assay [2].
Regarding `FC(F)(F)Oc1ccc(COc2nsnc2O[C@@H]2CN3CCC[C@H]2C3)cc1` (relative stereo) [Compound 196, (±)-endo-3-[4-(Trifluoromethoxy)benzyloxy]-4-(1-azabicyclo[3.2.1]octyl-6-oxy)-1,2,5-thiadiazole], the IC50 turned out to be 5.2 nM in assay [1] and 8.8 nM in assay [2] (setting [3]).
Taken in the same sequence, the figures for `COCCOc1nsnc1O[C@@H]1CN2CCC[C@H]1C2` (relative stereo) [Compound 183, (±)-endo-3-(2-Methoxyethoxy)-4-(1-azabicyclo[3.2.1]octyl-6-oxy)-1,2,5-thiadiazole] were 2.6 nM and 9.9 nM.
For the molecule `CCCCCSc1nsnc1O[C@@H]1CN2CCC[C@H]1C2` (relative stereo) [Compound 24, (±)-Endo-3-pentylthio-4-(1-azabicyclo[3.2.1]-octyl-6-oxy)-1,2,5-thiadiazole], the IC50 in assay [1] and in assay [2] (setting [3]) was 19 nM in each case.
For `CCCCSc1nsnc1OC1CCN(C)CC1` [Compound 30, 3-Butylthio-4-(1-methyl-4-piperidyloxy)-1,2,5-thiadiazole], the half-maximal inhibitory concentration (IC50) in assay [1] came out at 69 nM; in assay [2] (setting [3]), 19 nM.
In the case of `C1C[C@H]2CN(C1)C[C@H]2Oc1nsnc1OCC1CC1` (relative stereo) [Compound 182, (±)-endo-3-(cyclopropylmethoxy)-4-(1-azabicyclo[3.2.1]octyl-6-oxy)-1,2,5-thiadiazole], the half-inhibitory concentration (IC50) in assay [1] worked out at 0.6 nM; in assay [2] (setting [3]) it was 3.5 nM.
With `CCCOc1nsnc1OC1CN2CCC1CC2` (racemic) [Compound 7, (±)-3-propyloxy-4-(1-azabicyclo[2.2.2]octyl-3-oxy)-1,2,5-thiadiazole], the values for the concentration for half-maximal inhibition (IC50) in assay [1] and in assay [2] were 10.7 nM and 26 nM, respectively.
As to `CCCCOc1nsnc1O[C@H]1C[C@@H]2CC[C@H]1N2` (relative stereo) [Compound 133, (±)-exo-3-Butyloxy-4-(7-azabicyclo[2.2.1]heptyl-3-oxy)-1,2,5-thiadiazole], the half-inhibitory concentration (IC50) in assay [1] and in assay [2] (setting [3]) was more than 1000 nM in each case.
For `Fc1ccc(COc2nsnc2O[C@@H]2CN3CCC[C@H]2C3)cc1` (relative stereo) [Compound 194, (±)-endo-3-(4-Fluorobenzyloxy)-4-(1-azabicyclo[3.2.1]octyl-6-oxy)-1,2,5-thiadiazole], the results for the IC50 in assay [1] and in assay [2] (setting [3]) were 2.1 nM and 4 nM, respectively.

The values above are taken from patent US5665745A, “Heterocyclic compounds and their preparation and use” (Eli Lilly and Company, priority 1995, dated 1997).
